Test results published in the NIST ThermoML archive (doi:10.1016/j.jct.2006.03.002).
Numbers after ± are expanded uncertainties.

Test: molar heat capacity at constant pressure
Conditions: 101.33 kPa, Crystal, Small sample (50 mg) DSC

## [F-].[Na+] [sodium fluoride]
630.6 K
  molar heat capacity at constant pressure: 58.08 ± 1.4 J/K/mol
645.6 K
  molar heat capacity at constant pressure: 58.11 ± 1.4 J/K/mol
675.7 K
  molar heat capacity at constant pressure: 59.55 ± 1.5 J/K/mol
690.6 K
  molar heat capacity at constant pressure: 59.36 ± 1.4 J/K/mol
720.6 K
  molar heat capacity at constant pressure: 58.15 ± 1.4 J/K/mol
735.5 K
  molar heat capacity at constant pressure: 59.11 ± 1.4 J/K/mol
750.6 K
  molar heat capacity at constant pressure: 58.85 ± 1.4 J/K/mol
765.6 K
  molar heat capacity at constant pressure: 59.28 ± 1.4 J/K/mol
795.6 K
  molar heat capacity at constant pressure: 58.36 ± 1.4 J/K/mol
825.5 K
  molar heat capacity at constant pressure: 58.26 ± 1.4 J/K/mol
840.4 K
  molar heat capacity at constant pressure: 58.49 ± 1.4 J/K/mol
855.6 K
  molar heat capacity at constant pressure: 59.14 ± 1.4 J/K/mol
870.6 K
  molar heat capacity at constant pressure: 58.37 ± 1.4 J/K/mol
885.5 K
  molar heat capacity at constant pressure: 59.37 ± 1.4 J/K/mol
900.5 K
  molar heat capacity at constant pressure: 59.7 ± 1.5 J/K/mol
907.5 K
  molar heat capacity at constant pressure: 59.76 ± 1.5 J/K/mol
915.5 K
  molar heat capacity at constant pressure: 60.11 ± 1.5 J/K/mol
922.3 K
  molar heat capacity at constant pressure: 60.21 ± 1.5 J/K/mol
937.4 K
  molar heat capacity at constant pressure: 60.58 ± 1.5 J/K/mol
945.5 K
  molar heat capacity at constant pressure: 59.64 ± 1.5 J/K/mol
952.5 K
  molar heat capacity at constant pressure: 59.98 ± 1.5 J/K/mol
960.6 K
  molar heat capacity at constant pressure: 60.43 ± 1.5 J/K/mol
967.5 K
  molar heat capacity at constant pressure: 60.92 ± 1.5 J/K/mol
975.4 K
  molar heat capacity at constant pressure: 59.89 ± 1.5 J/K/mol
982.6 K
  molar heat capacity at constant pressure: 60.11 ± 1.5 J/K/mol
990.5 K
  molar heat capacity at constant pressure: 61.01 ± 1.5 J/K/mol
997.5 K
  molar heat capacity at constant pressure: 60.91 ± 1.5 J/K/mol
1012.6 K
  molar heat capacity at constant pressure: 61.02 ± 1.5 J/K/mol
1027.6 K
  molar heat capacity at constant pressure: 60.56 ± 1.5 J/K/mol
1042.6 K
  molar heat capacity at constant pressure: 61.86 ± 1.5 J/K/mol
1057.7 K
  molar heat capacity at constant pressure: 61.63 ± 1.5 J/K/mol
1072.7 K
  molar heat capacity at constant pressure: 62.08 ± 1.5 J/K/mol
1087.8 K
  molar heat capacity at constant pressure: 62.41 ± 1.5 J/K/mol
1102.9 K
  molar heat capacity at constant pressure: 62.25 ± 1.5 J/K/mol
